The numbers were not newly measured in patent publication US20040038984A1, “Composition for male & female sexual arousal” (priority 2002, published 2004), which cites them from elsewhere.

SMILES strings stand for the structures.

The conditions of the series: following oral administration.

Take `Cn1cc([S+](C)[O-])c(=O)c2ccc(F)cc21` (stereo not shown) [flosequinan]: the “time of peak plasma concentrations” value was 1 to 2 h.
